Experimental data reported in ChEMBL document CHEMBL6083246 (Bioorg Med Chem, 2024).
Activity calls are given as the source filed them. No cut-off for these calls is given here.

What was measured:
[1] = biological target: Aldo-keto reductase family 1 member B1 (Mus musculus) (UniProt P45376); test: Induction of thermal stabilization of AKR1B1 in mouse RAW264.7 cells at 50 uM at 45 to 75 degreeC incubated for 2 hrs by cellular thermal shift assay; format: cell-based
[2] = system: RAW264.7; test: Antiinflammatory activity in LPS induced mouse RAW264.7 cells assessed as reduction in NO production at 50 uM incubated for 24 hrs by Griess reagent based assay; format: functional, cell-based
[3] = system: RAW264.7; test: Cytotoxicity against mouse RAW264.7 cells assessed as reduction in cell viability at < 640 uM incubated for 24 hrs by CCK8 assay; format: toxicity, cell-based; settings: raw264.7, 24 h
[4] = system: RAW264.7; test: Cytotoxicity against mouse RAW264.7 cells assessed as reduction in cell viability at 1080 uM incubated for 24 hrs by CCK8 assay; format: toxicity, cell-based; settings: raw264.7, 24 h
[5] = system: RAW264.7; test: Antiinflammatory activity in LPS induced mouse RAW264.7 cells reduction in ROS production at 50 uM incubated for 24 hrs by DCFH-DA staining based microplate reader analysis; format: functional, cell-based
[6] = system: RAW264.7; test: Antiinflammatory activity in LPS induced mouse RAW264.7 cells assessed as reduction in NO production incubated for 24 hrs by Griess reagent based assay; format: functional, cell-based
[7] = system: RAW264.7; test: Antiinflammatory activity in LPS induced mouse RAW264.7 cells reduction in ROS production incubated for 24 hrs by DCFH-DA staining based microplate reader analysis; format: functional, cell-based
[8] = system: RAW264.7; test: Antiinflammatory activity in LPS induced mouse RAW264.7 cells assessed as reduction in TNFalpha production at 50 uM incubated for 24 hrs by ELISA; format: functional, cell-based
[9] = system: RAW264.7; test: Antiinflammatory activity in LPS induced mouse RAW264.7 cells assessed as reduction in IL-6 production at 50 uM incubated for 24 hrs by ELISA; format: functional, cell-based

Activity [1]	SMILES	Activity [2]	Activity [3]	Activity [4]	Activity [5]	Activity [6]	Activity [7]	Activity [8]	Activity [9]
Active	O=C(/C=C/c1ccc(O)c(O)c1)O[C@@H]1C[C@](O)(C(=O)O)C[C@@H](O)[C@H]1O [CHLOROGENIC ACID]	Active; Showed Higher Activity Compared To 4-Cqa And 5-Cqa	Non-toxic	Toxic	Active	Dose-dependent-effect	Dose-dependent-effect	Active; Showed Higher Activity Compared To 4-Cqa And 5-Cqa	Active; Showed Higher Activity Compared To 4-Cqa And 5-Cqa
Active	O=C(/C=C/c1ccc(O)c(O)c1)O[C@H]1[C@H](O)C[C@](O)(C(=O)O)C[C@H]1O	–	Non-toxic	Toxic	–	Dose-dependent-effect	Dose-dependent-effect	Active; Showed Higher Activity Compared To 5-Cqa	–
–	CC(/C=C1\SC(=S)N(CC(=O)O)C1=O)=C\c1ccccc1	–	–	–	–	–	–	Active	Active
Active	O=C(/C=C/c1ccc(O)c(O)c1)O[C@@H]1C[C@@](O)(C(=O)O)C[C@@H](O)[C@@H]1O	–	Non-toxic	Toxic	–	Dose-dependent-effect	Dose-dependent-effect	–	–
